The values that follow come from PMC2897734 (Current topics in medicinal chemistry, 2009).

The structures appear in SMILES notation.

Assay type in all cases: binding
The target of experiment [1] is T1, putative adenylate kinase (Leishmania major, UniProt Q4Q7A6).
T1 sequence (Q4Q7A6 1-180): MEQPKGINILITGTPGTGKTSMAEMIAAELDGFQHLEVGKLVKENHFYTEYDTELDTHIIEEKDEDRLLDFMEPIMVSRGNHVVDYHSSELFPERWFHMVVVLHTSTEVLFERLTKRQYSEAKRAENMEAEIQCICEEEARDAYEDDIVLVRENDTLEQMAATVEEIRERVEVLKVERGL
Put plainly: fragment cocktail soak, crystal electron density.

Experiment [2] concerns the target T2, uracil-DNA glycosylase (Leishmania naiffi, UniProt D0VWU0).
T2 sequence (D0VWU0 1-260): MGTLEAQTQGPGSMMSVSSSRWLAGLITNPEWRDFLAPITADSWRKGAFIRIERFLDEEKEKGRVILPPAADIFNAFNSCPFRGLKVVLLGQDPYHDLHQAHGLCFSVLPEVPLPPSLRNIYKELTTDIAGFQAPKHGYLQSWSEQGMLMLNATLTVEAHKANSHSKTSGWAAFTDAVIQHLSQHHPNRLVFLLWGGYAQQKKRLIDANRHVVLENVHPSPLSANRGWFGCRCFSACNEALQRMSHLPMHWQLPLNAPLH
Put plainly: fragment cocktail soak, crystal structure.

Experiment [3] deals with T2, uracil-DNA glycosylase. Briefly: fragment cocktail soak, crystal structure. The source holds these as a separate data set.
The target of experiment [4] is coproporphyrinogen III oxidase (Leishmania major, UniProt P84155). Briefly: fragment cocktail soak, crystal structure.
coproporphyrinogen III oxidase, sequence (P84155 whole entry, the tested form may be a part): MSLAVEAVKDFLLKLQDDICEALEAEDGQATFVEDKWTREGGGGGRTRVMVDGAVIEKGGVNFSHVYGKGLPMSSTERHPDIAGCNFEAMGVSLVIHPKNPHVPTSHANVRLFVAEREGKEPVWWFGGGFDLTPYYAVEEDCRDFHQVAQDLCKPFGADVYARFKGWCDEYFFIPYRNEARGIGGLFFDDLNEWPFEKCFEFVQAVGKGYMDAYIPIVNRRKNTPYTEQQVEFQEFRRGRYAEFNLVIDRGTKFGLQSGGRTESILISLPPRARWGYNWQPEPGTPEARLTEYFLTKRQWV
Experiment [5] concerns the target T3, phosphoglycerate mutase (PGM) (Plasmodium falciparum, UniProt Q8IIG6).
T3 sequence (Q8IIG6 1-250): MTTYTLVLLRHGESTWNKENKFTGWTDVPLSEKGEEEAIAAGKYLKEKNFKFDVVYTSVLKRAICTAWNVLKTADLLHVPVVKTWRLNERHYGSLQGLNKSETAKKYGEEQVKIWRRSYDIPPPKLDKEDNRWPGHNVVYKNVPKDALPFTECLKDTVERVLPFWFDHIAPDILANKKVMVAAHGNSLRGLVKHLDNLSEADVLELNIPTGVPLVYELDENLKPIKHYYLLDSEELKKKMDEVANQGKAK
Briefly: fragment cocktail soak, crystal electron density.

As for `Cc1cc(N)c2ccccc2n1` [4-amino-2-methylquinoline], the “fragment cocktail soak, crystal electron density” value in experiment [1] is listed as “Electron density for 4-amino-2-methylquinoline when bound to L.major adenylate kinase (left)”.

On to `c1cc(N2CCOCC2)ccn1` [4-morpholinopyridine], for which the “fragment cocktail soak, crystal structure” value in experiment [2] is reported as “Fragments bound to L.naiffi uracil-DNA glycosylase: 4-morpholinopyridine (left upper)”.

One may read the IC50 as the concentration that inhibits the measured activity by half. In the case of `COc1ccc(Cl)cc1C(=O)O` [5-chloro-2-methoxybenzoic acid], the IC50 in experiment [3] is about 15 mM.

As for `O=C(O)c1cc2cc(F)ccc2[nH]1` [5-fluoroindole-2-carboxylic acid], the “fragment cocktail soak, crystal structure” value in experiment [4] was “Fragments from two different cocktails were found to bind: 5-fluoroindole-2-carboxylic acid (PDB: 3DWS)”.

On to `O=C(O)c1ccc(-c2ccccc2)o1` [5-phenyl-2-furoic acid], for which the “fragment cocktail soak, crystal electron density” value in experiment [5] is reported as “Electron density for 5-Phenyl-2-furoic acid when bound to P.falciparum PGM (left)”.

In the case of `O=C(O)c1ccc2cccc(O)c2n1` [8-hydroxyquinoline-2-carboxylic acid], the “fragment cocktail soak, crystal structure” value in experiment [2] is “DMSO and 8-hydroxyquinoline-2-carboxylic acid (left lower)”.
